Measured values from patent US20250041311A1, “Compound For Treating or Preventing Vimentin-Mediated Diseases” (Aluda Pharmaceuticals, Inc., priority 2021, published 2025).
Entries after “also recorded” stand apart in the source; their conditions may differ.

Columns and labels:
Huh7-NC12 cells = experiment: Exosome release from liver cancer cells (luciferase exosome reporter, ExoHTP platform); format: cell-based; settings: 48 h, luciferase activity of exosomes purified from supernatant
BALB/c mice = experiment: Circulating plasma exosomes in mice after oral dosing; format: in vivo, mouse; settings: 100 mg/kg once a day for 14 days by gavage, vs vehicle
Experimental: In vivo experiments: 6- to 8-week-old BALB/c mice (18 to 20 g) were purchased from Beijing Life River Experimental Animal Technology Co., Ltd. (Beijing, China) and housed at the Experimental Animal Center of Nanjing University of Traditional Chinese Medicine. Animals were maintained at 22±2° C. on a regular 12h/12h light-dark cycle with free access to food and water. All animal experiments were approved by the Ethics Committee of Nanjing University of Traditional Chinese Medicine. Animal care was provided according to IACUC-approved guidelines.
Twenty-four hours after the last administration, the mice were anesthetized with pentobarbital sodium, from which blood samples were collected, and then the mice were euthanized. […].
Isolation of exosomes from mouse plasma: To obtain plasma for exosome isolation, blood was centrifuged at 500 g for 5 min at 4° C.; 2000 g for 15 min; and treated with a solution of 10000 g for 20 min to remove cells, debris and large vesicles. The crude exosome pellet was resuspended in 60 ml of cold PBS (Invitrogen), and then the exosome suspension was centrifuged at 100,000 g for 70 min at 4° C. For sucrose density gradient centrifugation, mix the washed exosome pellet with 2 mL of […] sucrose solution and add to a sucrose step gradient column (10 2 ml sucrose gradients from […] using 20 mM HEPES as diluent). […]

Treg cells = experiment: Syngeneic mouse CT26 tumor model (Treg activation and regeneration); format: in vivo; settings: 100 mg/kg C52 oral QD
Experimental: BALB/c mice were subcutaneously inoculated with 1×10E6 CT26 cells. Mice were randomly assigned to each treatment group. The tumor size was measured with a caliper, and the tumor volume was calculated by the following formula: V=length×width 2×1/2. Tumor-bearing mice were orally administered with vehicle or 100 mg/kg […], QD. On the 13th day after tumor inoculation, vehicle- and […]-treated mice were given a single intraperitoneal injection of low-dose (50 mg/kg) cyclophosphamide (Sigma-Aldrich). Mice were euthanized before tumors reached 2.0 cm in longest dimension. Spleen and lymph node samples were collected for flow cytometric analysis.

A549 cells = experiment: Wound healing assay; format: cell-based, human; settings: different concentrations of C52, 48 h, dose-dependent
Experimental: Wound healing assay: Cells were seeded in 6-well plates containing complete medium and cultured at 37° C. in a humidified air environment containing 5% CO2. […] […] The wound area and migrated cells within the wound area were photographed using a phase-contrast microscope. The wound area was measured using Image J software.

PANC-1 cells = experiment: Wound healing assay; format: cell-based, human; settings: different concentrations of C52, 24 h, dose-dependent
Experimental: Wound healing assay: Cells were seeded in 6-well plates containing complete medium and cultured at 37° C. in a humidified air environment containing 5% CO2. […] Then, the cells were washed 3 times with PBS, and then incubated with serum-free RPMI-1640 medium containing different concentrations of […] for 24 h. The wound area and migrated cells within the wound area were photographed using a phase-contrast microscope. The wound area was measured using Image J software.

O=C(Nc1ccc(F)cc1)Nc1ccc(Nc2nc(/C=C/c3ccccc3)nc(N3CCOCC3)n2)cc1 [Compound C52]
inhibition of exosome release (Huh7-NC12 cells): comparable to that of the known exosome inhibitor GW4869; also recorded: effectively inhibit the release of exosomes
exosomal markers CD63 and TSG101 in plasma exosomes (BALB/c mice): significantly decreased
tumor growth vs vehicle-treated control mice (Treg cells; BALB/c mice with CT26 tumors): grow faster
regeneration of Treg in lymph nodes (Treg cells; day 29, 16 days after low-dose cyclophosphamide): significantly increased
closure rate of the gap size (A549 cells): significantly decreased
closure rate of the gap size (PANC-1 cells): significantly decreased
